Assays:
HCT-116 = experiment: Growth inhibition of human HCT116 cells after 48 hrs by sulforhodamine B assay; type: functional; conditions: HCT-116, 48 h
NCI/ADR-RES = experiment: Growth inhibition of human NCI/ADR-RES cells after 48 hrs by sulforhodamine B assay; type: functional
SK-MEL-5 = experiment: Growth inhibition of human SK-MEL-5 cells after 48 hrs by sulforhodamine B assay; type: functional; conditions: SK-MEL-5, 48 h
HCT-15 = experiment: Growth inhibition of human HCT15 cells after 48 hrs by sulforhodamine B assay; type: functional; conditions: HCT-15, 48 h
HOP-92 = experiment: Growth inhibition of human HOP92 cells after 48 hrs by sulforhodamine B assay; type: functional; conditions: HOP-92, 48 h
OVCAR-3 = experiment: Growth inhibition of human OVCAR-3 cells after 48 hrs by sulforhodamine B assay; type: functional; conditions: OVCAR-3, 48 h
MOLT-4 = experiment: Growth inhibition of human MOLT4 cells after 48 hrs by sulforhodamine B assay; type: functional; conditions: MOLT-4, 48 h
MDA-MB-231 = experiment: Growth inhibition of human MDA-MB-231 cells after 48 hrs by sulforhodamine B assay; type: functional; conditions: MDA-MB-231, 48 h
BT-549 = experiment: Growth inhibition of human BT549 cells after 48 hrs by sulforhodamine B assay; type: functional; conditions: BT-549, 48 h
SN12C = experiment: Growth inhibition of human SN12C cells after 48 hrs by sulforhodamine B assay; type: functional
Malme-3M = experiment: Growth inhibition of human MALME-3M cells after 48 hrs by sulforhodamine B assay; type: functional
HT-29 = experiment: Growth inhibition of human HT-29 cells after 48 hrs by sulforhodamine B assay; type: functional; conditions: HT-29, 48 h
[1] = Selectivity index, ratio of TC50 for african green monkey (Cercopithecus aethiops) Vero cells to IC50 for chloroquine-resistant Plasmodium falciparum W2; type: toxicity, cell-based
NCI-H322M = experiment: Growth inhibition of human NCI-H322M cells after 48 hrs by sulforhodamine B assay; type: functional
HOP-62 = experiment: Growth inhibition of human HOP62 cells after 48 hrs by sulforhodamine B assay; type: functional; conditions: HOP-62, 48 h
MDA-MB-435 = experiment: Growth inhibition of human MDA-MB-435 cells after 48 hrs by sulforhodamine B assay; type: functional; conditions: MDA-MB-435, 48 h
EKVX = experiment: Growth inhibition of human EKVX cells after 48 hrs by sulforhodamine B assay; type: functional
COLO 205 = experiment: Growth inhibition of human COLO205 cells after 48 hrs by sulforhodamine B assay; type: functional; conditions: COLO 205, 48 h
SNB-19 = experiment: Growth inhibition of human SNB19 cells after 48 hrs by sulforhodamine B assay; type: functional; conditions: SNB-19, 48 h
RXF 393 = experiment: Growth inhibition of human RXF393 cells after 48 hrs by sulforhodamine B assay; type: functional; conditions: RXF 393, 48 h
[2] = Growth inhibition of human Hs 578T cells after 48 hrs by sulforhodamine B assay; type: functional
SK-MEL-2 = experiment: Growth inhibition of human SK-MEL-2 cells after 48 hrs by sulforhodamine B assay; type: functional; conditions: SK-MEL-2, 48 h
HCC 2998 = experiment: Growth inhibition of human HCC2998 cells after 48 hrs by sulforhodamine B assay; type: functional; conditions: HCC 2998, 48 h
NCI-H23 = experiment: Growth inhibition of human NCI-H23 cells after 48 hrs by sulforhodamine B assay; type: functional; conditions: NCI-H23, 48 h
OVCAR-4 = experiment: Growth inhibition of human OVCAR4 cells after 48 hrs by sulforhodamine B assay; type: functional; conditions: OVCAR-4, 48 h
SF-268 = experiment: Growth inhibition of human SF268 cells after 48 hrs by sulforhodamine B assay; type: functional; conditions: SF-268, 48 h
SK-MEL-28 = experiment: Growth inhibition of human SK-MEL-28 cells after 48 hrs by sulforhodamine B assay; type: functional; conditions: SK-MEL-28, 48 h
OVCAR-8 = experiment: Growth inhibition of human OVCAR8 cells after 48 hrs by sulforhodamine B assay; type: functional; conditions: OVCAR-8, 48 h
MCF7 = experiment: Growth inhibition of human MCF7 cells after 48 hrs by sulforhodamine B assay; type: functional; conditions: MCF7, 48 h
A549 = experiment: Growth inhibition of human A549 cells after 48 hrs by sulforhodamine B assay; type: functional; conditions: A549, 48 h
NCI-H522 = experiment: Growth inhibition of human NCI-H522 cells after 48 hrs by sulforhodamine B assay; type: functional; conditions: NCI-H522, 48 h
UO-31 = experiment: Growth inhibition of human UO31 cells after 48 hrs by sulforhodamine B assay; type: functional; conditions: UO-31, 48 h
SR = experiment: Growth inhibition of human SR cells after 48 hrs by sulforhodamine B assay; type: functional
SW-620 = experiment: Growth inhibition of human SW620 cells after 48 hrs by sulforhodamine B assay; type: functional; conditions: SW-620, 48 h
IGROV-1 = experiment: Growth inhibition of human IGROV1 cells after 48 hrs by sulforhodamine B assay; type: functional; conditions: IGROV-1, 48 h
ACHN = experiment: Growth inhibition of human ACHN cells after 48 hrs by sulforhodamine B assay; type: functional
SNB-75 = experiment: Growth inhibition of human SNB75 cells after 48 hrs by sulforhodamine B assay; type: functional; conditions: SNB-75, 48 h
A498 = experiment: Growth inhibition of human A498 cells after 48 hrs by sulforhodamine B assay; type: functional; conditions: A498, 48 h
K562 = experiment: Growth inhibition of human K562 cells after 48 hrs by sulforhodamine B assay; type: functional; conditions: K562, 48 h
CAKI-1 = experiment: Growth inhibition of human Caki1 cells after 48 hrs by sulforhodamine B assay; type: functional; conditions: CAKI-1, 48 h
Plasmodium falciparum = experiment: Antimalarial activity after 72 hrs against chloroquine-resistant Plasmodium falciparum W2 infected erythrocytes by LDH assay; type: functional, organism-based; conditions: W2, 72 h
KM12 = experiment: Growth inhibition of human KM12 cells after 48 hrs by sulforhodamine B assay; type: functional; conditions: KM12, 48 h
LOX IMVI = experiment: Growth inhibition of human LOXIMVI cells after 48 hrs by sulforhodamine B assay; type: functional
CCRF-CEM = experiment: Growth inhibition of human CCRF-CEM cells after 48 hrs by sulforhodamine B assay; type: functional
786-0 = experiment: Growth inhibition of human 786-0 cells after 48 hrs by sulforhodamine B assay; type: functional; conditions: 786-0, 48 h
SF-539 = experiment: Growth inhibition of human SF539 cells after 48 hrs by sulforhodamine B assay; type: functional; conditions: SF-539, 48 h
HL-60 = experiment: Growth inhibition of human HL-60(TB) cells after 48 hrs by sulforhodamine B assay; type: functional; conditions: HL-60, 48 h
U-251 = experiment: Growth inhibition of human U251 cells after 48 hrs by sulforhodamine B assay; type: functional; conditions: U-251, 48 h
TK-10 = experiment: Growth inhibition of human TK10 cells after 48 hrs by sulforhodamine B assay; type: functional; conditions: TK-10, 48 h
NCI-H460 = experiment: Growth inhibition of human NCI-H460 cells after 48 hrs by sulforhodamine B assay; type: functional; conditions: NCI-H460, 48 h

C[C@H]1[C@@H](OCC(O)CO[C@@H]2C[C@@H]3CC[C@@H](C)[C@@H]4CC[C@@]5(C)OO[C@@]34[C@H](O2)O5)O[C@@H]2O[C@@]3(C)CC[C@H]4[C@H](C)CC[C@@H]1[C@@]24OO3 (stereo partly specified)
GI50 (HCT-116): 49 nM | GI50 (NCI/ADR-RES): 340 nM | GI50 (SK-MEL-5): 95 nM | GI50 (HCT-15): 27 nM | GI50 (HOP-92): 384 nM | GI50 (OVCAR-3): 171 nM | GI50 (MOLT-4): 298 nM | GI50 (MDA-MB-231): 45800 nM | GI50 (BT-549): 408 nM | GI50 (SN12C): 263 nM | GI50 (Malme-3M): 8820 nM | GI50 (HT-29): 268 nM | selectivity ratio [1]: > 6430 | GI50 (NCI-H322M): 62500 nM | GI50 (HOP-62): 13300 nM | GI50 (MDA-MB-435): 301 nM | GI50 (EKVX): 307 nM | GI50 (COLO 205): 40 nM | GI50 (SNB-19): 27600 nM | GI50 (RXF 393): 213 nM | GI50 [2]: 12500 nM | GI50 (SK-MEL-2): 14200 nM | GI50 (HCC 2998): 7020 nM | GI50 (NCI-H23): 135 nM | GI50 (OVCAR-4): 209 nM | GI50 (SF-268): 13700 nM | GI50 (SK-MEL-28): 9390 nM | GI50 (OVCAR-8): 252 nM | GI50 (MCF7): 95 nM | GI50 (A549): 505 nM | GI50 (NCI-H522): 521 nM | GI50 (UO-31): 108 nM | GI50 (SR): 178 nM | GI50 (SW-620): 99 nM | GI50 (IGROV-1): 13100 nM | GI50 (ACHN): 248 nM | GI50 (SNB-75): 8250 nM | GI50 (A498): 686 nM | GI50 (K562): 60 nM | GI50 (CAKI-1): 256 nM | IC50 (Plasmodium falciparum): 1200 nM | GI50 (KM12): 166 nM | GI50 (LOX IMVI): 110 nM | GI50 (CCRF-CEM): 104 nM | GI50 (786-0): 417 nM | GI50 (SF-539): 8640 nM | GI50 (HL-60): 62 nM

C[C@H]1[C@@H](OCCO[C@H]2O[C@@H]3O[C@@]4(C)CC[C@H]5[C@H](C)CC[C@@H]([C@H]2C)[C@@]35OO4)O[C@@H]2O[C@@]3(C)CC[C@H]4[C@H](C)CC[C@@H]1[C@@]24OO3
GI50 (HCT-116): 26 nM | GI50 (NCI/ADR-RES): 243 nM | GI50 (SK-MEL-5): 316 nM | GI50 (HCT-15): 19 nM | GI50 (HOP-92): 149 nM | GI50 (MOLT-4): 42 nM | GI50 (MDA-MB-231): 15000 nM | GI50 (BT-549): 14300 nM | GI50 (SN12C): 540 nM | GI50 (Malme-3M): 504 nM | GI50 (HT-29): 41 nM | selectivity ratio [1]: > 64 | GI50 (NCI-H322M): > 100000 nM | GI50 (U-251): 267 nM | GI50 (HOP-62): 107 nM | GI50 (MDA-MB-435): 572 nM | GI50 (EKVX): 146 nM | GI50 (COLO 205): 490 nM | GI50 (SNB-19): > 100000 nM | GI50 (RXF 393): 10600 nM | GI50 [2]: 656 nM | GI50 (SK-MEL-2): 243 nM | GI50 (HCC 2998): 6920 nM | GI50 (NCI-H23): 1150 nM | GI50 (OVCAR-4): 36 nM | GI50 (SF-268): 460 nM | GI50 (SK-MEL-28): 32500 nM | GI50 (OVCAR-8): 179 nM | GI50 (MCF7): 34 nM | GI50 (A549): 63 nM | GI50 (NCI-H522): 69 nM | GI50 (TK-10): 206 nM | GI50 (UO-31): 469 nM | GI50 (SR): 77 nM | GI50 (SW-620): 70 nM | GI50 (IGROV-1): 65 nM | GI50 (ACHN): 257 nM | GI50 (SNB-75): 887 nM | GI50 (A498): 77200 nM | GI50 (K562): 14 nM | GI50 (CAKI-1): 297 nM | GI50 (NCI-H460): 150 nM | IC50 (Plasmodium falciparum): 1200 nM | GI50 (KM12): 81 nM | GI50 (LOX IMVI): 72 nM | GI50 (CCRF-CEM): 68 nM | GI50 (786-0): 305 nM | GI50 (SF-539): 300 nM | GI50 (HL-60): 29 nM
